According to US11807644B2 (PMV Pharmaceuticals, Inc., priority 2020, dated 2023):

Molecular target: T1, recombinant His-tag Y220C p53 DBD protein (Homo sapiens, UniProt P04637, Y220C)
T1 construct: recombinant His-tag Y220C p53 DBD protein (amino acids #˜94-312)
Assay: In vitro DNA binding activity assay (TR-FRET): binding of His-tag Y220C p53 DBD to biotin-labeled consensus DNA
Assay type: biochemical
Settings: SC150 = concentration to increase DNA binding by […], His-tag Y220C p53 DBD, biotin-labeled consensus DNA

Row | SMILES | Y220C SC150 (μM)
1 | CN1CCC(Nc2cccc3c2cc(-c2noc(CNC(=O)c4ccccc4)n2)n3CC(F)(F)F)CC1 [Compound 144B, N-[(3-{4-[(1-methylpiperidin-4-yl)amino]-1-(2,2,2-trifluoroethyl)-1H-indol-2-yl}-1,2,4-oxadiazol-5-yl)methyl]benzamide] | * (* = 0 μM ≤ SC150 < 0.1 μM)
2 | CCn1ccc(C(=O)NCc2nc(-c3cc4c(N[C@H]5CCN(C)C[C@H]5F)cccc4n3CC(F)(F)F)no2)c1 [Compound 187B, 1-ethyl-N-{[3-(4-{[(3R,4S)-3-fluoro-1-methylpiperidin-4-yl]amino}-1-(2,2,2-trifluoroethyl)-1H-indol-2-yl)-1,2,4-oxadiazol-5-yl]methyl}-1H-pyrrole-3-carboxamide] | * (* = 0 μM ≤ SC150 < 0.1 μM)
3 | CN1CC[C@@H](Nc2cccc3c2cc(-c2noc(CNC(=O)[C@H]4C[C@H]4c4ccccc4)n2)n3CC(F)(F)F)[C@@H](F)C1 [Compound 206B, (1S,2R)-N-{[3-(4-{[(3S,4R)-3-fluoro-1-methylpiperidin-4-yl]amino}-1-(2,2,2-trifluoroethyl)-1H-indol-2-yl)-1,2,4-oxadiazol-5-yl]methyl}-2-phenylcyclopropane-1-carboxamide] | * (* = 0 μM ≤ SC150 < 0.1 μM)
4 | CN1CC[C@@H](Nc2cccc3c2cc(-c2noc(CNC(=O)c4cnn(C5CCCCC5)c4)n2)n3CC(F)(F)F)[C@@H](F)C1 [Compound 326B, 1-cyclohexyl-N-{[3-(4-{[(3S,4R)-3-fluoro-1-methylpiperidin-4-yl]amino}-1-(2,2,2-trifluoroethyl)-1H-indol-2-yl)-1,2,4-oxadiazol-5-yl]methyl}-1H-pyrazole-4-carboxamide] | * (* = 0 μM ≤ SC150 < 0.1 μM)
5 | CN1CCC(Nc2cccc3c2cc(-c2nnc(CNc4ccc(S(C)(=O)=O)cc4)o2)n3CC(F)(F)F)CC1 [Compound 111B, 2-(5-{[(4-methanesulfonylphenyl)amino]methyl}-1,3,4-oxadiazol-2-yl)-N-(1-methylpiperidin-4-yl)-1-(2,2,2-trifluoroethyl)-1H-indol-4-amine] | ** (** = 0.1 μM ≤ SC150 < 0.5 μM)
6 | O=C(NCc1nc(-c2cc3c(NC4CCNC4)cccc3n2CC(F)(F)F)no1)C1CC1 (racemic) [Compound 167B, (+/−)-N-[(3-{4-[(pyrrolidin-3-yl)amino]-1-(2,2,2-trifluoroethyl)-1H-indol-2-yl}-1,2,4-oxadiazol-5-yl)methyl]cyclopropanecarboxamide] | * (* = 0 μM ≤ SC150 < 0.1 μM)
7 | CN1CC[C@@H](Nc2cccc3c2cc(-c2noc(CNC(=O)c4ccc(C(C)(C)C)n4C)n2)n3CC(F)(F)F)[C@@H](F)C1 [Compound 542B, 5-tert-butyl-N-{[3-(4-{[(3S,4R)-3-fluoro-1-methylpiperidin-4-yl]amino}-1-(2,2,2-trifluoroethyl)-1H-indol-2-yl)-1,2,4-oxadiazol-5-yl]methyl}-1-methyl-1H-pyrrole-2-carboxamide] | * (* = 0 μM ≤ SC150 < 0.1 μM)
8 | CN1CC[C@@H](Nc2cccc3c2cc(-c2noc(CNC(=O)c4ccnc(C(C)(C)O)c4)n2)n3CC(F)(F)F)[C@@H](F)C1 [Compound 550B, N-{[3-(4-{[(3S,4R)-3-fluoro-1-methylpiperidin-4-yl]amino}-1-(2,2,2-trifluoroethyl)-1H-indol-2-yl)-1,2,4-oxadiazol-5-yl]methyl}-2-(2-hydroxypropan-2-yl)pyridine-4-carboxamide] | * (* = 0 μM ≤ SC150 < 0.1 μM)
9 | CN1CC[C@H](F)[C@H](Nc2cccc3c2cc(-c2noc(CNC(=O)c4ccn(C5(C)CCOCC5)c4)n2)n3CC(F)(F)F)C1 [Compound 403B, N-{[3-(4-{[(3R,4S)-4-fluoro-1-methylpiperidin-3-yl]amino}-1-(2,2,2-trifluoroethyl)-1H-indol-2-yl)-1,2,4-oxadiazol-5-yl]methyl}-1-(4-methyloxan-4-yl)-1H-pyrrole-3-carboxamide] | * (* = 0 μM ≤ SC150 < 0.1 μM)
10 | CC(C)n1ccc(C(=O)NCc2nc(-c3cc4c(N[C@@H]5CCN(C)C[C@@H]5F)cccc4n3CC(F)(F)F)no2)c1 [Compound 199B, N-{[3-(4-{[(3S,4R)-3-fluoro-1-methylpiperidin-4-yl]amino}-1-(2,2,2-trifluoroethyl)-1H-indol-2-yl)-1,2,4-oxadiazol-5-yl]methyl}-1-(propan-2-yl)-1H-pyrrole-3-carboxamide] | * (* = 0 μM ≤ SC150 < 0.1 μM)
11 | CN1CCC(Nc2cccc3c2cc(-c2nnc(CNC(=O)C4CC4)o2)n3CC(F)(F)F)CC1 [Compound 110B, N-[(5-{4-[(1-methylpiperidin-4-yl)amino]-1-(2,2,2-trifluoroethyl)-1H-indol-2-yl}-1,3,4-oxadiazol-2-yl)methyl]cyclopropanecarboxamide] | *** (*** = 0.5 μM ≤ SC150 < 1 μM)
12 | CN1CC[C@@H](Nc2cccc3c2cc(-c2noc(CNc4nccc5c4ccn5C)n2)n3CC(F)(F)F)[C@@H](F)C1 [Compound 454B, N-[(3S,4R)-3-fluoro-1-methylpiperidin-4-yl]-2-{5-[({1-methyl-1H-pyrrolo[3,2-c]pyridin-4-yl}amino)methyl]-1,2,4-oxadiazol-3-yl}-1-(2,2,2-trifluoroethyl)-1H-indol-4-amine] | * (* = 0 μM ≤ SC150 < 0.1 μM)
13 | CC(C)NC[C@@H]1C[C@H]1C(=O)NCc1nc(-c2cc3c(N[C@@H]4CCN(C)C[C@@H]4F)cccc3n2CC(F)(F)F)no1 [Compound 246B, (1R,2R)-N-{[3-(4-{[(3S,4R)-3-fluoro-1-methylpiperidin-4-yl]amino}-1-(2,2,2-trifluoroethyl)-1H-indol-2-yl)-1,2,4-oxadiazol-5-yl]methyl}-2-{[(propan-2-yl)amino]methyl}cyclopropane-1-carboxamide] | * (* = 0 μM ≤ SC150 < 0.1 μM)
14 | CN1CC[C@@H](Nc2cccc3c2cc(-c2cc(CNC(=O)c4ccn(C(C)(C)C)c4)on2)n3CC(F)(F)F)[C@@H](F)C1 [Compound 553B, 1-tert-butyl-N-{[3-(4-{[(3S,4R)-3-fluoro-1-methylpiperidin-4-yl]amino}-1-(2,2,2-trifluoroethyl)-1H-indol-2-yl)-1,2-oxazol-5-yl]methyl}-1H-pyrrole-3-carboxamide] | * (* = 0 μM ≤ SC150 < 0.1 μM)
15 | CN1CC[C@@H](Nc2cccc3c2cc(-c2noc(CNC(=O)c4csc(C(C)(C)CO)n4)n2)n3CC(F)(F)F)[C@@H](F)C1 [Compound 532B, N-{[3-(4-{[(3S,4R)-3-fluoro-1-methylpiperidin-4-yl]amino}-1-(2,2,2-trifluoroethyl)-1H-indol-2-yl)-1,2,4-oxadiazol-5-yl]methyl}-2-(1-hydroxy-2-methylpropan-2-yl)-1,3-thiazole-4-carboxamide] | * (* = 0 μM ≤ SC150 < 0.1 μM)
16 | CN1CCC(Nc2cccc3c2cc(-c2nnc(CNC(=O)c4ccncc4)s2)n3CC(F)(F)F)CC1 [Compound 49B, N-[(5-{4-[(1-methylpiperidin-4-yl)amino]-1-(2,2,2-trifluoroethyl)-1H-indol-2-yl}-1,3,4-thiadiazol-2-yl)methyl]pyridine-4-carboxamide] | ** (** = 0.1 μM ≤ SC150 < 0.5 μM)
17 | C[C@H]1CN(C)CC[C@H]1Nc1cccc2c1cc(-c1noc(CNC(=O)c3ccc(C(C)(C)O)s3)n1)n2CC(F)(F)F [Compound 509B, N-{[3-(4-{[(3S,4R)-1,3-dimethylpiperidin-4-yl]amino}-1-(2,2,2-trifluoroethyl)-1H-indol-2-yl)-1,2,4-oxadiazol-5-yl]methyl}-5-(2-hydroxypropan-2-yl)thiophene-2-carboxamide] | * (* = 0 μM ≤ SC150 < 0.1 μM)
18 | CN1CC[C@@H](Nc2cccc3c2cc(-c2noc(CNC(=O)c4cn(C)nn4)n2)n3CC(F)(F)F)[C@@H](F)C1 [Compound 236B, N-{[3-(4-{[(3S,4R)-3-fluoro-1-methylpiperidin-4-yl]amino}-1-(2,2,2-trifluoroethyl)-1H-indol-2-yl)-1,2,4-oxadiazol-5-yl]methyl}-1-methyl-1H-1,2,3-triazole-4-carboxamide] | * (* = 0 μM ≤ SC150 < 0.1 μM)
19 | CCN1CC[C@@H](Nc2cccc3c2cc(-c2noc(CNC(=O)c4cnn(C(C)(C)C)c4)n2)n3CC(F)(F)F)[C@@H](F)C1 [Compound 304B, 1-tert-butyl-N-{[3-(4-{[(3S,4R)-1-ethyl-3-fluoropiperidin-4-yl]amino}-1-(2,2,2-trifluoroethyl)-1H-indol-2-yl)-1,2,4-oxadiazol-5-yl]methyl}-1H-pyrazole-4-carboxamide] | * (* = 0 μM ≤ SC150 < 0.1 μM)
20 | CN1CC[C@@H](Nc2cccc3c2cc(-c2noc(CNC(=O)[C@@H]4C[C@H]4c4ccccn4)n2)n3CC(F)(F)F)[C@@H](F)C1 [Compound 226B, (1R,2R)-N-{[3-(4-{[(3S,4R)-3-fluoro-1-methylpiperidin-4-yl]amino}-1-(2,2,2-trifluoroethyl)-1H-indol-2-yl)-1,2,4-oxadiazol-5-yl]methyl}-2-(pyridin-2-yl)cyclopropane-1-carboxamide] | * (* = 0 μM ≤ SC150 < 0.1 μM)
21 | CN1CCC(Nc2cccc3c2cc(-c2noc(CNC(=O)c4ccn(C)n4)n2)n3CC(F)(F)F)CC1 [Compound 155B, 1-methyl-N-[(3-{4-[(1-methylpiperidin-4-yl)amino]-1-(2,2,2-trifluoroethyl)-1H-indol-2-yl}-1,2,4-oxadiazol-5-yl)methyl]-1H-pyrazole-3-carboxamide] | * (* = 0 μM ≤ SC150 < 0.1 μM)

Same assay, conditions: concentration to increase DNA binding by […], incubated at either 27° C. or 29° C. for 60 min

Row | SMILES | SC150 (μM)
22 | Cc1ccc(-c2cc3c(NC4CCS(=O)(=O)CC4)cccc3n2CC(F)(F)F)c(F)c1 [Compound 11A, 4-{[2-(2-fluoro-4-methylphenyl)-1-(2,2,2-trifluoroethyl)-1H-indol-4-yl]amino}-1λ^6-thiane-1,1-dione] | ++++ (++++ = 10 μM ≤ SC150 < 35 μM)
23 | COc1cc(S(C)(=O)=O)ccc1NCc1ccc(-c2cc3c(N[C@H]4CCN(C)C[C@H]4F)cccc3n2CC(F)(F)F)cc1 (racemic) [Compound 43A, (+/−)-N-[(3R,4S)-3-fluoro-1-methylpiperidin-4-yl]-2-(4-{[(4-methanesulfonyl-2-methoxyphenyl)amino]methyl}phenyl)-1-(2,2,2-trifluoroethyl)-1H-indol-4-amine] | + (+ = 0 μM ≤ SC150 < 2 μM)
